Reference: article PMC7934444, “A bifunctional enzyme belonging to cytochrome P450 family involved in the O-dealkylation and N-dealkoxymethylation toward chloroacetanilide herbicides in Rhodococcus sp. B2” (Microbial Cell Factories, 2021)

Target: T1, EthABDB2 (EthAB2 + EthBB2 + EthDB2) (Rhodococcus sp. B2, UniProt A0A8A6W4L4)
T1 construct: gene ethB; 43 kDa (EthA), 44 kDa (EthB), 10 kDa (EthD); mixed in vitro; EthB has ten residue differences from EthB of strain T3-1; with Ferredoxin reductase EthA; EthD protein (10 kDa; unknown function, acts as ferredoxin)
T1 sequence (A0A8A6W625 entry or part of it): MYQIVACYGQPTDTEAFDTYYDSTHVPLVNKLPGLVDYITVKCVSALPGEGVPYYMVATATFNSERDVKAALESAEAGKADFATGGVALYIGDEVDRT
T1 sequence (A0A8A6W4L4 entry or part of it): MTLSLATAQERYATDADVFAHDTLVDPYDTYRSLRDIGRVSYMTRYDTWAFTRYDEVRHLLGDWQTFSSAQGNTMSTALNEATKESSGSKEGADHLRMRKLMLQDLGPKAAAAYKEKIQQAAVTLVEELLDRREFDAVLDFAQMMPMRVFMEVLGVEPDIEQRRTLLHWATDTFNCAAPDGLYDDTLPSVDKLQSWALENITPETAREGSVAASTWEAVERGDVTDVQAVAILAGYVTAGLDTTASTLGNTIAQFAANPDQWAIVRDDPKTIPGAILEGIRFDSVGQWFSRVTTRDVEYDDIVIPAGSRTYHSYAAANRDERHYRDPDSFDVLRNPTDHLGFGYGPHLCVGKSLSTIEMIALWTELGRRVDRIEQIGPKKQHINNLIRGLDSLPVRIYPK
T1 sequence (A0A8A6W576 entry or part of it, further chain): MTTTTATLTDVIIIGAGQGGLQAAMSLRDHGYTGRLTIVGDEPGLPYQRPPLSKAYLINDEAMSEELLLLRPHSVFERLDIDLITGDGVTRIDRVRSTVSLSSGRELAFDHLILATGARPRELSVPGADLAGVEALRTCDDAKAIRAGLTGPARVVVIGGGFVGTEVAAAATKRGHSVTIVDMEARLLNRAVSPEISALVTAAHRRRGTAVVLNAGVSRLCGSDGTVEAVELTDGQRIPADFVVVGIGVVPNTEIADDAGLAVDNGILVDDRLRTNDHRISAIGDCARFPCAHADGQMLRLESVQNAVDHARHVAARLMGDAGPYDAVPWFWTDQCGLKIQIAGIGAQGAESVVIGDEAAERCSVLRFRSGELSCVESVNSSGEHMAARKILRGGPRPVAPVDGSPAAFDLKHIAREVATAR
Experiment: reconstituted enzyme assay, HPLC substrate loss; GC-MS of product CMEPA
Assay type: biochemical
Settings: 0.5 mM substrate; 1 mM NADH, 0.5 mM Fe2+, 1 mM MgCl2, 20 mM Tris-HCl pH 7.5, 30 °C; N-dealkoxymethylation

## CCc1cccc(C)c1N(COC(C)C)C(=O)CCl [propisochlor]
  reconstituted enzyme assay, HPLC substrate loss; GC-MS of product CMEPA: EthABDB2 performed N-dealkoxymethylation to acetochlor, alachlor, propisochlor and butachlor, O-dealkylation to pretilachlor
